Results reported in the supplement of paper PMC5579334.

Columns and labels:
[1] = system: HSC2; experiment: relative IC50 (inflection point of fitted dose-response curve, CellTox-Green cytotoxicity, 72 h; top asymptote may be below 50%); higher = less potent
Outline: (§1)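 MPNST cell lines and primary human Schwann cells were grown for 72 h at 37 °C in 384-well plates containing five 10-fold compound dilutions. CellTox-Green, added before seeding at a final 1:1000 dilution, gave fluorescence from DNA released by disrupted cells, and signals were scaled to vehicle and positive-control wells. Curves were fitted with a four-parameter logistic model. Drug sensitivity score and relative IC50 come from these fits, with IC50 censored at the top concentration.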

[2] = system: HS-PSS; experiment: as above
Outline: as §1

[3] = system: ST8814; experiment: as above
Outline: as §1

[4] = system: HSC1; experiment: as above
Outline: as §1

[5] = system: HSC2; experiment: relative IC50 (inflection point of fitted dose-response curve, CellTiter-Glo viability, 72 h; top asymptote may be below 50% inhibition); higher = less potent
Outline: (§2)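 Viability of MPNST cell lines and primary human Schwann cells was read as CellTiter-Glo ATP luminescence after 72 h at 37 °C, 5% CO2, in 384-well plates seeded with 750–1000 cells per well. Each compound had been preprinted at five concentrations in 10-fold steps. Signals were scaled between vehicle and positive-control wells, duplicates averaged where present, and fitted with four-parameter logistic curves. Drug sensitivity score and relative IC50 (censored at the top concentration) come from those fits, and percent inhibition is taken at the top concentration.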

[6] = system: HS-PSS; experiment: as above
Outline: as §2

[7] = system: ST8814; experiment: as above
Outline: as §2

[8] = system: HSC1; experiment: as above
Outline: as §2

[9] = system: HS-Sch-2; experiment: as above
Outline: as §2

[10] = system: YST-1; experiment: as above
Outline: as §2

[11] = system: STS26T; experiment: relative IC50 (inflection point of fitted dose-response curve, CellTox-Green cytotoxicity, 72 h; top asymptote may be below 50%); higher = less potent
Outline: as §1

[12] = system: S462; experiment: relative IC50 (inflection point of fitted dose-response curve, CellTiter-Glo viability, 72 h; top asymptote may be below 50% inhibition); higher = less potent
Outline: as §2

[13] = system: STS26T; experiment: as above
Outline: as §2

| Structure (SMILES) | relative IC50 [1] [µM] | relative IC50 [2] [µM] | relative IC50 [3] [µM] | relative IC50 [4] [µM] | relative IC50 [5] [µM] | relative IC50 [6] [µM] | relative IC50 [7] [µM] | relative IC50 [8] [µM] | relative IC50 [9] [µM] | relative IC50 [10] [µM] | relative IC50 [11] [µM] | relative IC50 [12] [µM] | relative IC50 [13] [µM] |
| --- | --- | --- | --- | --- | --- | --- | --- | --- | --- | --- | --- | --- | --- |
| CN1CCC(COc2cnc(-c3cccc(Cn4nc(-c5cccc(C#N)c5)ccc4=O)c3)nc2)CC1 | > 1 | > 1 | > 1 | > 1 | > 1 | > 1 | > 1 | > 1 | > 1 | > 1 |  |  |  |
| Nc1ncnc2c1c(COc1cccc(Cl)c1)nn2C1CCOCC1 | > 10 | > 10 | > 10 | > 10 | > 10 | > 10 | > 10 |  |  | > 10 | > 10 | > 10 |  |
| Cc1cc(Nc2nc(N[C@@H](C)c3ncc(F)cn3)ncc2Cl)[nH]n1 [AZD1480] |  | > 1 | > 1 | > 1 |  |  |  | 0.193 | > 1 |  |  |  |  |
| COc1cc(CCc2cc(NC(=O)c3ccc(N4CC(C)NC(C)C4)cc3)n[nH]2)cc(OC)c1 (stereo not drawn) [AZD4547] | > 1 | > 1 | > 1 | > 1 |  | > 1 | > 1 |  | 0.253 | > 1 | > 1 |  | > 1 |
| CN(C)C/C=C/C(=O)Nc1cc2c(Nc3ccc(F)c(Cl)c3)ncnc2cc1O[C@H]1CCOC1 [Afatinib] | > 1 | > 1 | > 1 | > 1 | > 1 | 0.148 | > 1 | > 1 |  | > 1 | > 1 | > 1 | > 1 |
| CNC(=O)c1ccccc1Sc1ccc2c(/C=C/c3ccccn3)n[nH]c2c1 [Axitinib] |  | > 10 |  |  | 0.694 | 2.58 | 1.36 | 1.2 | 1.7 | 0.972 | 1.38 | 0.933 | 1.51 |
| C=C(c1ccc(C(=O)O)cc1)c1cc2c(cc1C)C(C)(C)CCC2(C)C [Bexarotene] | > 10 | > 10 | > 10 | > 10 | > 10 | > 10 | > 10 |  | > 10 | > 10 | > 10 | > 10 | > 10 |
| Cc1c(N)nc([C@H](CC(N)=O)NC[C@H](N)C(N)=O)nc1C(=O)N[C@H](C(=O)N[C@H](C)[C@@H](O)[C@H](C)C(=O)N[C@H](C(=O)NCCc1nc(-c2nc(C(=O)NCCC[S+](C)C)cs2)cs1)[C@@H](C)O)[C@@H](O[C@@H]1O[C@@H](CO)[C@@H](O)[C@H](O)[C@@H]1O[C@H]1O[C@H](CO)[C@@H](O)[C@H](OC(N)=O)[C@@H]1O)c1c[nH]cn1 [Bleomycin] |  |  | 2.85 | > 10 | 0.284 | 0.835 | 1.62 | 0.58 | 0.923 | 0.594 | 0.328 | 2.27 | 1.67 |
| CCC/C=C/C=C/C(=O)O[C@H]1/C(=C/C(=O)OC)C[C@H]2C[C@H]([C@@H](C)O)OC(=O)C[C@H](O)C[C@@H]3C[C@H](OC(C)=O)C(C)(C)[C@](O)(C[C@@H]4C/C(=C/C(=O)OC)C[C@H](/C=C/C(C)(C)[C@]1(O)O2)O4)O3 [Bryostatin 1] | > 0.1 | > 0.1 | > 0.1 | > 0.1 | > 0.1 |  | > 0.1 | > 0.1 | 0.00041 | > 0.1 | > 0.1 |  |  |
| CC1=NN(c2ccc(C(=O)O)cc2)C(=O)C1=Cc1ccc(-c2cc(C)c(C)cc2[N+](=O)[O-])o1 [C646] | 9.18 | > 25 | > 25 | > 25 | > 25 |  | > 25 | > 25 | > 25 |  | > 25 |  | > 25 |
| COc1cc2c(Oc3ccc4[nH]c(C)cc4c3F)ncnc2cc1OCCCN1CCCC1 [Cediranib] |  | > 1 |  | > 1 | > 1 |  | > 1 |  | > 1 | > 1 | > 1 | > 1 | > 1 |
| Nc1nc(Cl)nc2c1ncn2[C@H]1C[C@H](O)[C@@H](CO)O1 [Cladribine] | 0.319 |  |  | 0.35 | 0.174 | 0.366 |  | 0.151 | 0.351 | 0.321 |  |  | 0.226 |
| CC1=C2C[C@H]3[C@@H](CC=C4C[C@@H](O)CC[C@@]43C)[C@@H]2CC[C@]12O[C@@H]1C[C@H](C)CN[C@H]1[C@H]2C [Cyclopamine] | > 10 |  | > 10 | > 10 | > 10 |  | > 10 | > 10 |  |  | > 10 | > 10 | > 10 |
| Nc1ncn([C@H]2C[C@H](O)[C@@H](CO)O2)c(=O)n1 [Decitabine] | > 10 | > 10 | > 10 | > 10 | 2.26 | > 10 |  |  | 0.782 | > 10 | > 10 | 0.273 |  |
| CNC(=O)c1ccc(N2C(=S)N(c3ccc(C#N)c(C(F)(F)F)c3)C(=O)C2(C)C)cc1F [Enzalutamide] | > 10 | > 10 | > 10 | > 10 | > 10 | > 10 |  |  | > 10 | > 10 | > 10 | > 10 | > 10 |
| Cc1c(C(=O)Nc2ccc(N3C[C@@H](C)O[C@@H](C)C3)nc2)cccc1-c1ccc(OC(F)(F)F)cc1 [Erismodegib] |  |  | > 10 |  | > 10 |  | > 10 | > 10 |  |  | > 10 | > 10 |  |

| Structure (SMILES) | relative IC50 [1] [µM] | relative IC50 [2] [µM] | relative IC50 [3] [µM] | relative IC50 [4] [µM] | relative IC50 [5] [µM] | relative IC50 [6] [µM] | relative IC50 [7] [µM] | relative IC50 [8] [µM] | relative IC50 [9] [µM] | relative IC50 [10] [µM] | relative IC50 [11] [µM] | relative IC50 [12] [µM] | relative IC50 [13] [µM] |
| --- | --- | --- | --- | --- | --- | --- | --- | --- | --- | --- | --- | --- | --- |
| CCN1CCN(c2ccc(Nc3cc(N(C)C(=O)Nc4c(Cl)c(OC)cc(OC)c4Cl)ncn3)cc2)CC1 [NVP-BGJ398] | > 1 | > 1 | > 1 | > 1 | > 1 | > 1 |  | > 1 | > 1 | > 1 | > 1 | > 1 | > 1 |
| COc1nc(N)nc2c1ncn2[C@@H]1O[C@H](CO)[C@@H](O)[C@@H]1O [Nelarabine] |  | > 10 | > 10 | > 10 | > 10 | > 10 | > 10 | > 10 | > 10 | > 10 | > 10 | > 10 | > 10 |
| COc1ccc(C2=N[C@@H](c3ccc(Cl)cc3)[C@@H](c3ccc(Cl)cc3)N2C(=O)N2CCNC(=O)C2)c(OC(C)C)c1 [Nutlin-3] | > 10 | > 10 |  | > 10 | 1.22 |  | 2.05 | 1.49 | > 10 | 1.41 | > 10 | > 10 |  |
| O=C(c1cc(Cc2n[nH]c(=O)c3ccccc23)ccc1F)N1CCN(C(=O)C2CC2)CC1 [Olaparib] |  | > 10 | 3.36 | > 10 | 1.34 |  | 3.54 | 1.67 | 1.36 | 0.426 | 3.43 | 2 | 2.33 |
| Cc1ccc(Nc2nccc(N(C)c3ccc4c(C)n(C)nc4c3)n2)cc1S(N)(=O)=O [Pazopanib] | > 10 | > 10 | > 10 | > 10 |  | 0.605 | > 10 |  |  | > 10 | > 10 | > 10 | > 10 |
| CC[C@@H]1C(=O)OC[C@@H]1Cc1cncn1C [Pilocarpine] | > 40 | > 40 | > 40 | > 40 | > 40 | > 40 | > 40 | > 40 |  | > 40 | > 40 | > 40 | > 40 |
| Nc1cccc2c1C(=O)N(C1CCC(=O)NC1=O)C2=O (stereo not drawn) [Pomalidomide] | > 10 | > 10 | > 10 | > 10 | > 10 | > 10 | > 10 | > 10 | > 10 | > 10 | > 10 |  | > 10 |
| COCC1(CO)C(=O)C2CCN1CC2 (stereo not drawn) [Prima-1 Met] | > 10 |  | > 10 | > 10 | 2.14 |  | > 10 | 0.572 |  |  | > 10 |  |  |
| CNC(=O)c1ccc(N2C(=S)N(c3ccc(C#N)c(C(F)(F)F)c3)C(=O)C23CCC3)cc1F [RD162] | > 10 | > 10 | > 10 | > 10 | > 10 | > 10 |  |  | > 10 | > 10 | > 10 | > 10 | > 10 |
| CO[C@H]1C[C@@H]2CC[C@@H](C)[C@@](O)(O2)C(=O)C(=O)N2CCCC[C@H]2C(=O)O[C@H]([C@H](C)C[C@@H]2CC[C@@H](O)[C@H](OC)C2)CC(=O)[C@H](C)/C=C(\C)[C@@H](O)[C@@H](OC)C(=O)[C@H](C)C[C@H](C)/C=C/C=C/C=C/1C [Sirolimus] | > 0.1 | > 0.1 | > 0.1 | > 0.1 |  | 0.00371 |  |  | 0.00638 | 0.00609 | > 0.1 | > 0.1 | 0.0217 |
| CCN(CC)CCNC(=O)c1c(C)[nH]c(/C=C2\C(=O)Nc3ccc(F)cc32)c1C [Sunitinib] | > 1 | > 1 | > 1 | > 1 | > 1 |  |  | > 1 | > 1 | > 1 | > 1 |  | > 1 |
| CC(C)C[C@@H](C(=O)N[C@H](C(=O)OC1CCCC1)c1ccccc1)[C@H](O)C(=O)NO [Tosedostat] | > 10 | > 10 |  | > 10 | 0.0761 | 3.27 | 1.24 | 0.138 | 0.258 | 0.222 | 0.0253 | 0.424 | 0.0814 |
| CC1=C(/C=C/C(C)=C/C=C/C(C)=C/C(=O)O)C(C)(C)CCC1 [Tretinoin] | > 10 | > 10 | > 10 | > 10 |  | > 10 |  | 0.361 | > 10 | > 10 | > 10 | > 10 |  |
| COc1cc2/c(=N/c3ccc(Br)cc3F)nc[nH]c2cc1OCC1CCN(C)CC1 [Vandetanib] | > 1 |  |  | > 1 | > 1 | 0.0865 | > 1 | > 1 | > 1 | > 1 | > 1 | > 1 |  |
| CCc1c(C(=O)C(N)=O)c2c(OCC(=O)O)cccc2n1Cc1ccccc1 [Varespladib] | > 10 | > 10 | > 10 | > 10 | > 10 | > 10 | > 10 |  | > 10 | > 10 | > 10 |  | > 10 |
